In ChEMBL document CHEMBL4346688, “Discovery of novel mutant-combating ALK and ROS1 dual inhibitors bearing imidazolidin-2-one moiety with reasonable PK properties” (Eur J Med Chem, 2019):
Calls of active or inactive are those of the source. The calls are words filed in the database; no cut-off is given here.

Columns and labels:
[1] = molecular target: Fibroblast growth factor receptor (Homo sapiens, UniProt P22607+P11362+P22455+P21802); test: Inhibition of FGFR (unknown origin) incubated for 1 hr by mobility shift assay; type: protein assay
[2] = AUCt in Sprague-Dawley rat at 10 mg/kg, po by UPLC/MS/MS analysis; type: ADME, organism-based; conditions: in vivo
[3] = molecular target: T1, Proto-oncogene tyrosine-protein kinase ROS (Homo sapiens, UniProt P08922)
[4] = molecular target: T2, ALK tyrosine kinase receptor (Homo sapiens, UniProt Q9UM73)
Description: Inhibition of N-terminal GST-tagged human ALK cytoplasmic domain (1058 to 1620 residues) expressed in Baculovirus expression system using srctide as substrate incubated for 1 hr by mobility shift assay

[5] = molecular target: ALK tyrosine kinase receptor (Homo sapiens, UniProt Q9UM73, L1196M)
[6] = molecular target: ALK tyrosine kinase receptor (Homo sapiens, UniProt Q9UM73, G1202R)
[7] = tested on: ALK tyrosine kinase receptor (Homo sapiens), Q9UM73 [G1202R]; test: Potency index, ratio of IC50 for ceritinib to IC50 for test compound for inhibition of N-terminal GST-tagged human ALK G1202R mutant cytoplasmic domain (1058 to 1620 residues) expressed in baculovirus expression system using srctide as substrate incubated for 1 hr by mobility shift assay
[8] = molecular target: Hepatocyte growth factor receptor (Homo sapiens, UniProt P08581); test: Inhibition of N-terminal GST-tagged human c-MET cytoplasmic domain (956 to 1390 residues) expressed in Baculovirus expression system using srctide as substrate incubated for 1 hr by mobility shift assay
[9] = Inhibition of PI3K (unknown origin) incubated for 1 hr by mobility shift assay; parameters: species or system Homo sapiens
[10] = molecular target: Cyclin-dependent kinase 4 (Homo sapiens, UniProt P11802); test: Inhibition of N-terminal GST-tagged full length human CDK4 (1 to 303 residues) expressed in Baculovirus expression system using DYRKtide F as substrate incubated for 1 hr by mobility shift assay
[11] = molecular target: Tyrosine-protein kinase JAK2 (Homo sapiens, UniProt O60674); test: Inhibition of N-terminal GST-tagged human JAK2 catalytic domain (826 to 1132 residues) expressed in Baculovirus expression system using srctide as substrate incubated for 1 hr by mobility shift assay
[12] = molecular target: Proto-oncogene tyrosine-protein kinase receptor Ret (Homo sapiens, UniProt P07949); test: Inhibition of N-terminal GST-tagged human RET cytoplasmic domain (658 to 1114 residues) expressed in baculovirus expression system using CSKtide as substrate incubated for 1 hr by mobility shift assay
[13] = molecular target: Insulin-like growth factor 1 receptor (Homo sapiens, UniProt P08069); test: Inhibition of N-terminal GST-tagged human IGF1R cytoplasmic domain (959 to 1367 residues) expressed in baculovirus expression system using IRS1 as substrate incubated for 1 hr by mobility shift assay
[14] = molecular target: Tyrosine-protein kinase BTK (Homo sapiens, UniProt Q06187); test: Inhibition of N-terminal GST-tagged full length human BTK (2 to 659 residues) expressed in Baculovirus expression system using srctide as substrate incubated for 1 hr by mobility shift assay
[15] = species on record: Homo sapiens; test: Selectivity index, ratio of IC50 for N-terminal GST-tagged human c-MET cytoplasmic domain (956 to 1390 residues) to IC50 for N-terminal GST-tagged human ALK cytoplasmic domain (1058 to 1620 residues)
[16] = species on record: Homo sapiens; test: Selectivity index, ratio of IC50 for N-terminal GST-tagged full length human CDK4 (1 to 303 residues) to IC50 for N-terminal GST-tagged human ALK cytoplasmic domain (1058 to 1620 residues)
[17] = species on record: Homo sapiens; test: Selectivity index, ratio of IC50 for FGFR (unknown origin) to IC50 for N-terminal GST-tagged human ALK cytoplasmic domain (1058 to 1620 residues)
[18] = species on record: Homo sapiens; test: Selectivity index, ratio of IC50 for N-terminal GST-tagged human IGF1R cytoplasmic domain (959 to 1367 residues) to IC50 for N-terminal GST-tagged human ALK cytoplasmic domain (1058 to 1620 residues)
[19] = molecular target: T2, ALK tyrosine kinase receptor; test: Inhibition of ALK phosphorylation in human H2228 cells incubated for 24 hrs by Western blot analysis; type: cell-based
Target sequence in this assay (Q9UM73 19-1620 limits assumed): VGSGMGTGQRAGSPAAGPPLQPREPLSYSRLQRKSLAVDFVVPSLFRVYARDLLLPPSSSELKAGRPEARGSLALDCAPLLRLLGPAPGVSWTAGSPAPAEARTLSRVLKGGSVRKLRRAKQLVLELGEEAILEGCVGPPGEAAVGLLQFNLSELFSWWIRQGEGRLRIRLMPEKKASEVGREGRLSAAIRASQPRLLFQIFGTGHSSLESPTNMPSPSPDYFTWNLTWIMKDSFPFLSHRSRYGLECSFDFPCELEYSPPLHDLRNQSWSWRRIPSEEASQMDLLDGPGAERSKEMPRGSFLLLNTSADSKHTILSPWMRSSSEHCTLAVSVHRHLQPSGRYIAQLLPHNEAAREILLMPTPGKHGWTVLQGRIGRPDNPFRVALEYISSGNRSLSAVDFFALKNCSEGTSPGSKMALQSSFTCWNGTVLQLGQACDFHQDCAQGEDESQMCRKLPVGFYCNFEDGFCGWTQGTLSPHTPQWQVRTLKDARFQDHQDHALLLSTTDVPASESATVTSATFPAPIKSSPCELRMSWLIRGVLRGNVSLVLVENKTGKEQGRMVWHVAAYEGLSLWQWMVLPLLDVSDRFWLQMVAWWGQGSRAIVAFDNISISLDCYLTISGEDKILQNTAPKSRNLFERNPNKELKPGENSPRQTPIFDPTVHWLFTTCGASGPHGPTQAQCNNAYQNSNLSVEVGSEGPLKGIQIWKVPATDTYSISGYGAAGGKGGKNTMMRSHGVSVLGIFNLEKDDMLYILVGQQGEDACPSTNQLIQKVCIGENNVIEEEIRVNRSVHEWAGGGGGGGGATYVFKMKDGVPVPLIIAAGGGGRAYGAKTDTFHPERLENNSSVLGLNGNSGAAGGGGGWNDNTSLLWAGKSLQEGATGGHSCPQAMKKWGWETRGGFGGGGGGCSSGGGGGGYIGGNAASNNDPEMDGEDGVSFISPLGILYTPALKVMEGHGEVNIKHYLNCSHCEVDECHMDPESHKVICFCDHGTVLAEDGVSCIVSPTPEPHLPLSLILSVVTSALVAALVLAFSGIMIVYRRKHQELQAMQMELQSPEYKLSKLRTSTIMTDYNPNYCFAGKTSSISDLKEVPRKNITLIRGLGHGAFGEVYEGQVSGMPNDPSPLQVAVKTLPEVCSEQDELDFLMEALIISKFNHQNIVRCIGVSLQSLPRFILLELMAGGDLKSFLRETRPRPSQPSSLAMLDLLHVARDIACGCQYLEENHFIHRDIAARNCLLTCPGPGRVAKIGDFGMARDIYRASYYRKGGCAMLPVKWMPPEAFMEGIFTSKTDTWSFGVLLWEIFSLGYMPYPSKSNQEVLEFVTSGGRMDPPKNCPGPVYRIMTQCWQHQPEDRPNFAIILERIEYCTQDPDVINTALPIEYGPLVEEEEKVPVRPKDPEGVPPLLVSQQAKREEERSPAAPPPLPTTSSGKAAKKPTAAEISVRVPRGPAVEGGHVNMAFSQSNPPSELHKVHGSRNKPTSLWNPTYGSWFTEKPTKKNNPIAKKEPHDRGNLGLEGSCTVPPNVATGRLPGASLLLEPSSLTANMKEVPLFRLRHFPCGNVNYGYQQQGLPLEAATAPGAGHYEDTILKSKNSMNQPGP

[20] = molecular target: T2, ALK tyrosine kinase receptor; test: Inhibition of ALK phosphorylation in human H2228 cells at 100 uM incubated for 24 hrs by Western blot analysis; type: cell-based
Target sequence in this assay (Q9UM73 19-1620 limits assumed): as above

[21] = Tmax in Sprague-Dawley rat at 10 mg/kg, po by UPLC/MS/MS analysis; type: ADME, organism-based; conditions: in vivo
[22] = Half life in Sprague-Dawley rat at 10 mg/kg, po by UPLC/MS/MS analysis; type: ADME, organism-based; conditions: in vivo
[23] = AUCinfinity in Sprague-Dawley rat at 10 mg/kg, po by UPLC/MS/MS analysis; type: ADME, organism-based; parameters: dose 10 mg/kg, route oral, time infinity; conditions: in vivo
[24] = Oral bioavailability in Sprague-Dawley rat at 10 mg/kg by UPLC/MS/MS analysis; type: ADME, organism-based; conditions: in vivo
[25] = Cmax in Sprague-Dawley rat at 2 mg/kg, iv by UPLC/MS/MS analysis; type: ADME, organism-based; parameters: dose 2 mg/kg, route intravenous; conditions: in vivo
[26] = Half life in Sprague-Dawley rat at 2 mg/kg, iv by UPLC/MS/MS analysis; type: ADME, organism-based; conditions: in vivo
[27] = AUCt in Sprague-Dawley rat at 2 mg/kg, iv by UPLC/MS/MS analysis; type: ADME, organism-based; conditions: in vivo
[28] = AUCinfinity in Sprague-Dawley rat at 2 mg/kg, iv by UPLC/MS/MS analysis; type: ADME, organism-based; parameters: dose 2 mg/kg, route intravenous, time infinity; conditions: in vivo
[29] = Volume of distribution in Sprague-Dawley rat at 2 mg/kg, iv by UPLC/MS/MS analysis; type: ADME, organism-based; conditions: in vivo
[30] = Biovailability in Sprague-Dawley rat at 2 mg/kg, iv by UPLC/MS/MS analysis; type: ADME, organism-based; conditions: in vivo
[31] = molecular target: T1, Proto-oncogene tyrosine-protein kinase ROS; remark: listed apart in the source
Description: Inhibition of N-terminal GST-tagged human ROS1 cytoplasmic domain (1883 to 2347 residues) expressed in Baculovirus expression system using IRS1 as substrate incubated for 1 hr by mobility shift assay

[32] = molecular target: Epidermal growth factor receptor (Homo sapiens, UniProt P00533)
Description: Inhibition of N-terminal GST-tagged human EGFR cytoplasmic domain (669 to 1210 residues) expressed in Baculovirus expression system using srctide as substrate incubated for 1 hr by mobility shift assay

[33] = tested on: KARPAS-299; test: cells; conditions: Homo sapiens, KARPAS-299, 72 h
Description: Cytotoxicity against human KARPAS299 cells incubated for 72 hrs by MTT assay

[34] = tested on: NCI-H2228; test: cells; conditions: Homo sapiens, NCI-H2228, 72 h
Description: Cytotoxicity against human NCI-H2228 cells incubated for 72 hrs by MTT assay

[35] = tested on: BaF3; test: cells; conditions: Mus musculus, BaF3, 72 h
[36] = tested on: BaF3; test: cells; conditions: Mus musculus, BaF3, 72 h; remark: listed apart in the source
Description: Cytotoxicity against mouse BA/F3 cells incubated for 72 hrs by MTT assay

[37] = tested on: HCC78; test: cells; conditions: Homo sapiens, HCC78, 72 h
Description: Cytotoxicity against human HCC78 cells incubated for 72 hrs by MTT assay

[38] = tested on: A549; test: cells; conditions: Homo sapiens, A549, 72 h
[39] = tested on: A549; test: cells; conditions: Homo sapiens, A549, 72 h; remark: listed apart in the source
Description: Cytotoxicity against human A549 cells incubated for 72 hrs by MTT assay

[40] = in vivo; conditions: Sprague-Dawley, rat, po, 10 mg/kg

T1 sequence (P08922 whole entry): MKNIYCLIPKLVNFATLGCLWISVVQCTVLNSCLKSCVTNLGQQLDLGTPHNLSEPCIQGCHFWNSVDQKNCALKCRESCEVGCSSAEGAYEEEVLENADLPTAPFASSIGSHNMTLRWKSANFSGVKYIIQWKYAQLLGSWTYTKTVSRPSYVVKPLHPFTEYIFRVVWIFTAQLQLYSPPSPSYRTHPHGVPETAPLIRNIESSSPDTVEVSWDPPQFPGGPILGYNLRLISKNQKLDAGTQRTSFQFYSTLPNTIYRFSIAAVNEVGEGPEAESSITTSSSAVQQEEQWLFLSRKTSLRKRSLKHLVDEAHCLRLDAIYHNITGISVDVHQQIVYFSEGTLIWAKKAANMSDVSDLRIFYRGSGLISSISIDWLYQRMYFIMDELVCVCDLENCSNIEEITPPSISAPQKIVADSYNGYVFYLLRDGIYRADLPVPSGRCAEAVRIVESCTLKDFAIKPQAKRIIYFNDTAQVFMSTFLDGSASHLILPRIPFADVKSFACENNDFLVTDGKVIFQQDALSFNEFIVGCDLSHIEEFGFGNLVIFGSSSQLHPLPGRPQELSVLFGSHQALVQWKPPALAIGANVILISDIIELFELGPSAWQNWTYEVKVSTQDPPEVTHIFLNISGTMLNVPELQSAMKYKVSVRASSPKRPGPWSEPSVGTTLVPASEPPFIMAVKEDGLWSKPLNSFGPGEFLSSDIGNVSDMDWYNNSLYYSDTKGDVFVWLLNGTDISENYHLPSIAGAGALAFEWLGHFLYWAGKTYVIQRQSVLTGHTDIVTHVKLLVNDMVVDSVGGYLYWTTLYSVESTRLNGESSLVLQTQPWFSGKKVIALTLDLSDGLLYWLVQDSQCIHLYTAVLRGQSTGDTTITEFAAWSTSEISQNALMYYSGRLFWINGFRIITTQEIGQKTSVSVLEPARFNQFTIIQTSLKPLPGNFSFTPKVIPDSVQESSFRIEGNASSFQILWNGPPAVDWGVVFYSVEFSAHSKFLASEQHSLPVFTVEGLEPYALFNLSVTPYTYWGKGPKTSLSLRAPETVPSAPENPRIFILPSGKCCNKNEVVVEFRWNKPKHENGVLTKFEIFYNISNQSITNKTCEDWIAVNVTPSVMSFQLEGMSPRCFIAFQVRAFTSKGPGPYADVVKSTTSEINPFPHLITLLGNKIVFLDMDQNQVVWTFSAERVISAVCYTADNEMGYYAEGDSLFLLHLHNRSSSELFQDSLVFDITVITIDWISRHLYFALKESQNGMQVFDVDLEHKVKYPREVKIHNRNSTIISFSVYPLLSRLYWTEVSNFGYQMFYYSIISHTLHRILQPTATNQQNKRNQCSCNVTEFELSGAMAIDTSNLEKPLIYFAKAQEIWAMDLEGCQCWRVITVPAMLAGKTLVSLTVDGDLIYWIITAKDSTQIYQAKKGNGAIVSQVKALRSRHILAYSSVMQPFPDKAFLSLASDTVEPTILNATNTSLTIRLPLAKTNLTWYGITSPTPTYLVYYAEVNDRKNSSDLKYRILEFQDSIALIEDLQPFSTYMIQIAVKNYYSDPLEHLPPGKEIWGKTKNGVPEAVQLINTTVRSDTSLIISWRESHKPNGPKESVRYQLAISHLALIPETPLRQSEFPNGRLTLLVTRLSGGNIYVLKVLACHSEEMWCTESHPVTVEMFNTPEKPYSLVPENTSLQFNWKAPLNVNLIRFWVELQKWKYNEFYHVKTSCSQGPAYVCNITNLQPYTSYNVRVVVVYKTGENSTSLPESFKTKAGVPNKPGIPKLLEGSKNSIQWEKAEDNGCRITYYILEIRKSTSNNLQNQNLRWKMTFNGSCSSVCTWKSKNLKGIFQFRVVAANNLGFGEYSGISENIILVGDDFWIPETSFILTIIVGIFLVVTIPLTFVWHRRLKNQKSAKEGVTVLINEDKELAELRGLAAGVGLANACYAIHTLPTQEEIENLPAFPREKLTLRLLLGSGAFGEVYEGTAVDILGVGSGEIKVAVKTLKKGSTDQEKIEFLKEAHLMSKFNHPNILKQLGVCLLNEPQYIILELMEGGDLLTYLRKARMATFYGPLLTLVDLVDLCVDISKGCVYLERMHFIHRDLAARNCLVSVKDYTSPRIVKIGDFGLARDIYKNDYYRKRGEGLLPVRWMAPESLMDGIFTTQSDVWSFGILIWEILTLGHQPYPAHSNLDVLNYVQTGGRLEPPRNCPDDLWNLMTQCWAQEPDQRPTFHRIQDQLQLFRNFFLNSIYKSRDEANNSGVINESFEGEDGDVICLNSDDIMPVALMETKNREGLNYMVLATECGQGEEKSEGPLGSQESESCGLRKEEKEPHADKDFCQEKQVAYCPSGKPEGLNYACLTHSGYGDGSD
Cyclin-dependent kinase 4, sequence (P11802 whole entry, the tested form may be a part): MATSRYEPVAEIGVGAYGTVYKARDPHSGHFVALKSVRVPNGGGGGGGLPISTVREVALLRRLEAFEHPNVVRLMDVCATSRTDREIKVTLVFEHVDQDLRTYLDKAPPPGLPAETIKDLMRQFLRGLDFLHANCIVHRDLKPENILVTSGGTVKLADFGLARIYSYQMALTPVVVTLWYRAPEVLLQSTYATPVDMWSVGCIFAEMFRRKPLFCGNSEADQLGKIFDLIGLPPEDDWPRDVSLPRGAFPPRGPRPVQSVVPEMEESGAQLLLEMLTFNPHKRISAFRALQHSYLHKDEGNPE
ALK tyrosine kinase receptor (Homo sapiens, UniProt Q9UM73, L1196M), sequence (Q9UM73 19-1620 L1196M limits assumed): as the sequence (Q9UM73 19-1620 limits assumed) above, with L1178M counted along it
ALK tyrosine kinase receptor (Homo sapiens, UniProt Q9UM73, G1202R), sequence (Q9UM73 19-1620 G1202R limits assumed): as the sequence (Q9UM73 19-1620 limits assumed) above, with G1184R counted along it
Tyrosine-protein kinase BTK, sequence (Q06187 whole entry, the tested form may be a part): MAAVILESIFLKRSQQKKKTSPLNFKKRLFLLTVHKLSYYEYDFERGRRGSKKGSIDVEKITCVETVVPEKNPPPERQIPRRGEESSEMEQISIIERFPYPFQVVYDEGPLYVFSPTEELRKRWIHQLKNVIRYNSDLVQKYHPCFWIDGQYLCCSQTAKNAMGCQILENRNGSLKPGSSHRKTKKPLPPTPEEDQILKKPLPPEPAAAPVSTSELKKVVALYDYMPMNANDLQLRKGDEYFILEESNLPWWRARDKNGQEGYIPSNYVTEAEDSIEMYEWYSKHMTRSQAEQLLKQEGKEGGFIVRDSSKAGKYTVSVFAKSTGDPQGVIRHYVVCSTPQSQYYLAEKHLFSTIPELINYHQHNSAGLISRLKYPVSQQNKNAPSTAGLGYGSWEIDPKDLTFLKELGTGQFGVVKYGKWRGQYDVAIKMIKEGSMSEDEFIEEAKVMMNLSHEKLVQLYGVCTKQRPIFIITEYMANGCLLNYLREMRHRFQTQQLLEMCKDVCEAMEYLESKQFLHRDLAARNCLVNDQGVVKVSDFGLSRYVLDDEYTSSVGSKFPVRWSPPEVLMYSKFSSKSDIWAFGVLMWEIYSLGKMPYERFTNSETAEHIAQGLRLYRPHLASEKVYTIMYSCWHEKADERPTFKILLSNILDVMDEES

COc1cc(N2CCN(CCN(C)C)C2=O)ccc1Nc1ncc(Cl)c(Nc2ccccc2S(=O)(=O)C(C)C)n1
IC50 [1]: 573 nM
AUC(0-t) [2]: 3420 ng·h/mL
Ratio IC50 [3]: 7
IC50 [4]: 1.2 nM
IC50 [5]: 0.73 nM
IC50 [6]: 6.7 nM
Ratio IC50 [7]: 30
IC50 [8]: 213 nM
IC50 [9]: > 1000 nM
IC50 [10]: 417 nM
IC50 [11]: > 1000 nM
IC50 [12]: > 1000 nM
IC50 [13]: 109 nM
IC50 [14]: > 1000 nM
Ratio IC50 [15]: 178
Ratio IC50 [16]: 348
Ratio IC50 [17]: 477
Ratio IC50 [18]: 91
inhibition [19]: Dose-dependent effect
inhibition [20]: Active
Tmax [21]: 5.3 h
half-life [22]: 7.4 h
AUC(0-inf) [23]: 4510 ng·h/mL
bioavailability [24]: 23%
Cmax [25]: 252 ng/mL
half-life [26]: 6.9 h
AUC(0-t) [27]: 1690 ng·h/mL
AUC [28]: 1965.3 ng·h/mL
Vd [29]: 9.93 L/kg
F [30]: 100%
IC50 [31]: 0.43 nM
IC50 [32]: > 1000 nM
IC50 [33]: 14 nM
IC50 [34]: 37 nM
IC50 [35]: 34 nM
IC50 [36]: 3130 nM
IC50 [37]: 29 nM
IC50 [38]: 73 nM
IC50 [39]: > 5000 nM
Cmax [40]: 297 ng/mL
